Measured values reported in patent publication US6197806A, “Eliminating agent for activated oxygen and free radicals” (Nippon Zoki Pharmaceutical Co., Ltd., priority 1995, dated 2001).

Assay: Measurement of ability for eliminating hydroxyl radicals (ESR spin trapping method, Fenton's reaction, DMPO)
Settings: 1 mM of DMPO; DMPO-OH ESR signal; phosphate buffer pH 7.8; room temperature; read-out: Concentration of Test Substance at 50% Inhibition of Signal Intensity, IC50
Experimental: Ability of the test substances for eliminating hydroxyl radicals was measured using an ESR spin trapping method which is frequently used for the detection of hydroxyl radicals. Generation of hydroxyl radicals was carried out using a Fenton's reaction in which hydroxyl radicals are generated by a reaction of divalent iron chelated with DTPA (diethylenediamine-pentaacetic acid) with hydrogen peroxide. […] When a test substance having an eliminating action for hydroxyl radicals is present in this reaction system, the above characteristic signal is inhibited and, therefore, the ability for eliminating hydroxyl radicals can be measured using that signal inhibition as an index.
Thus, a solution of a mixture of 1 mM of ferrous sulfate and DTPA dissolved in 100 mM of a phosphate buffer (pH 7.8) was charged in a test tube. Then, 50 μl of a sample solution containing the test substance or hydantoin compound of the invention and 20 μl of 1 mM or 2 mM of DMPO were added. Finally, 75 μl of 1 mM of hydrogen peroxide solution was added to the resulting mixture to initiate the reaction. Hydrogen peroxide solution was prepared immediately before each of the experiments and the reaction was conducted at room temperature.
An ESR spectrum in this reaction system was measured by conventional means. […]

Q: For `CN1C(=O)NC(=O)C1O` (stereo not shown) [Compound 21, 5-Hydroxy-1-methylhydantoin], which IC50 is on record?
A: 1000 µM
